The supplement of paper PMC11061612

Legend:
Assay in all cases: combination Emax (second highest fraction inhibited in the dose matrix, 72 h); higher = more inhibition; extreme values may be limits of the assay
BE2-M17 (Neuroblastoma) = tested on: BE2-M17 (Neuroblastoma)
Procedure, shortened: (§1)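 Cell lines in DMEM/F12 or RPMI with 10% FBS were plated in 1536-well plates, held 24 hours at 37°C, 5% CO2, then given two-drug dose matrices for 72 hours (DMSO typically 0.2%). Viability was read by CellTiter-Glo 2.0 luminescence and scaled as inhibition from 0 (vehicle wells) to 1 (blank wells). Combination Emax is the second-highest inhibition in the matrix; Bliss excess is observed combination effect minus expected EA + EB − EA·EB, EA and EB being single-agent effects.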

CAL-72 (Osteosarcoma) = tested on: CAL-72 (Osteosarcoma)
Procedure, shortened: as §1

[1] = tested on: WSU-NHL (B-Cell Non-Hodgkin's Lymphoma)
Procedure, shortened: as §1

[2] = tested on: LCLC-97TM1 (Non-Small Cell Lung Carcinoma)
Procedure, shortened: as §1

[3] = tested on: HuH-7 (Hepatocellular Carcinoma)
Procedure, shortened: as §1

[4] = tested on: YAPC (Pancreatic Carcinoma)
Procedure, shortened: as §1

[5] = tested on: LNZTA3WT4 (Low Grade Glioma)
Procedure, shortened: as §1

[6] = tested on: CAL-33 (Oral Cavity Carcinoma)
Procedure, shortened: as §1

[7] = tested on: L-428 (Hodgkin's Lymphoma)
Procedure, shortened: as §1

[8] = tested on: SW1710 (Bladder Carcinoma)
Procedure, shortened: as §1

MPP-89 (Mesothelioma) = tested on: MPP-89 (Mesothelioma)
Procedure, shortened: as §1

[9] = tested on: SAS (Oral Cavity Carcinoma)
Procedure, shortened: as §1

[10] = tested on: ESS-1 (Other Solid Carcinomas)
Procedure, shortened: as §1

BPH-1 (Non-Cancerous) = tested on: BPH-1 (Non-Cancerous)
Procedure, shortened: as §1

[11] = tested on: HH (T-Cell Non-Hodgkin's Lymphoma)
Procedure, shortened: as §1

[12] = tested on: NCI-H209 (Small Cell Lung Carcinoma)
Procedure, shortened: as §1

[13] = tested on: Hs-746T (Gastric Carcinoma)
Procedure, shortened: as §1

[14] = tested on: SW1573 (Lung Adenocarcinoma)
Procedure, shortened: as §1

[15] = tested on: TGBC1TKB (Biliary Tract Carcinoma)
Procedure, shortened: as §1

[16] = tested on: KMRC-20 (Kidney Carcinoma)
Procedure, shortened: as §1

Structure (SMILES)	combination Emax (BE2-M17 (Neuroblastoma))	combination Emax (CAL-72 (Osteosarcoma))	combination Emax [1]	combination Emax [2]	combination Emax [3]	combination Emax [4]	combination Emax [5]	combination Emax [6]	combination Emax [7]	combination Emax [8]	combination Emax (MPP-89 (Mesothelioma))	combination Emax [9]	combination Emax [10]	combination Emax (BPH-1 (Non-Cancerous))	combination Emax [11]	combination Emax [12]	combination Emax [13]	combination Emax [14]	combination Emax [15]	combination Emax [16]
CN(CCO)CC[C@H](CSc1ccccc1)Nc1ccc(S(=O)(=O)NC(=O)c2ccc(N3CCC([C@@H](O)c4ccccc4-c4ccc(Cl)cc4)CC3)cc2)cc1S(=O)(=O)C(F)(F)F [AZD4320] + C[C@@H](Nc1cc(F)cc(F)c1)c1cc(C(=O)N(C)C)cc2c(=O)cc(N3CCOCC3)oc12 [AZD8186] (first compound max 1 µM, 7x7, partner max 3 µM)	0.722	0.487	1	0.343	0.583	0.237	0.247	0.714	0.748	0.373	0.494	0.77	0.825	0.733	0.455	1	0.677	0.577	0.802	0.381
CC1(C)CCC(CN2CCN(c3ccc(C(=O)NS(=O)(=O)c4ccc(NCC5CCOCC5)c([N+](=O)[O-])c4)c(Oc4cnc5[nH]ccc5c4)c3)CC2)=C(c2ccc(Cl)cc2)C1 [Venetoclax] + C[C@@H](Nc1cc(F)cc(F)c1)c1cc(C(=O)N(C)C)cc2c(=O)cc(N3CCOCC3)oc12 [AZD8186] (first compound max 1 µM, 7x7, partner max 3 µM)	0.276	0.406	1	0.129	0.144	0.0625	0.185	0.149	0.196	0.194	0.236	0.282	0.814	0.31	0.434	0.515	0.269	0.136	0.526	0.245
CCc1c2c(nc3ccc(O)cc13)-c1cc3c(c(=O)n1C2)COC(=O)[C@]3(O)CC [SN-38] + CN(C)CCCOc1ccc(-c2ccc3ncc4c(c3c2)n(C2CCOCC2)c(=O)n4C)cn1 [AZD0156] (first compound max 0.3 µM, 7x7, partner max 1 µM)	0.887	0.774	1	0.693	0.149	0.51	0.449	0.936	0.894	0.312	0.632	1	1	0.94	0.0821	1	0.531	0.794	0.366	0.827
CN(CCO)CC[C@H](CSc1ccccc1)Nc1ccc(S(=O)(=O)NC(=O)c2ccc(N3CCC([C@@H](O)c4ccccc4-c4ccc(Cl)cc4)CC3)cc2)cc1S(=O)(=O)C(F)(F)F [AZD4320] + C=CCn1c(=O)c2cnc(Nc3ccc(N4CCN(C)CC4)cc3)nc2n1-c1cccc(C(C)(C)O)n1 [AZD1775] (first compound max 1 µM, partner max 1 µM)	0.92	0.782	0.995	0.933	0.729	0.278	0.889	0.859	0.983	0.418	0.628	0.647	1	0.709	0.802	1	0.738	0.698	0.508	0.61
COc1cccc(OCCCN)c1-c1cc(Nc2cnc(C#N)cn2)n[nH]1 [Prexasertib] + C[C@@H]1COCCN1C2=NC(=NC(=C2)C3(CC3)[S@](=N)(=O)C)C4=C5C=CNC5=NC=C4 [AZD6738] (first compound max 1 µM, 7x7, partner max 10 µM)	0.994	0.869	1	0.941	0.34	0.555	0.91	0.916	0.95	0.771	0.724	0.943	1	0.356	0.674	0.959	0.754	0.236	0.552	0.881
NC1(C(=O)N[C@@H](CCO)c2ccc(Cl)cc2)CCN(c2ncnc3[nH]ccc23)CC1 [Capivasertib] + C[C@@H]1COCCN1C2=NC(=NC(=C2)C3(CC3)[S@](=N)(=O)C)C4=C5C=CNC5=NC=C4 [AZD6738] (first compound max 10 µM, 7x7, partner max 10 µM)	0.702	0.842	1	0.873	0.453	0.334	0.79	0.918	0.77	0.596	0.545	0.829	0.959	0.574	0.349	0.9	0.582	0.461	0.559	0.647
C[C@@H]1COCCN1c1cc(C2([S@](C)(=N)=O)CC2)nc(-c2ccnc3[nH]ccc23)n1 [AZD6738] + O=C(c1cc(Cc2n[nH]c(=O)c3ccccc23)ccc1F)N1CCN(C(=O)C2CC2)CC1 [Olaparib] (first compound max 10 µM, 7x7, partner max 10 µM)	0.74	0.8	0.989	0.826	0.357	0.288	0.778	0.763	0.728	0.495	0.619	0.839	0.979	0.51	0.209	0.94	0.582	0.217	0.397	0.542
CN(CCO)CC[C@H](CSc1ccccc1)Nc1ccc(S(=O)(=O)NC(=O)c2ccc(N3CCC([C@@H](O)c4ccccc4-c4ccc(Cl)cc4)CC3)cc2)cc1S(=O)(=O)C(F)(F)F [AZD4320] + CN(C)CCCOc1ccc(-c2ccc3ncc4c(c3c2)n(C2CCOCC2)c(=O)n4C)cn1 [AZD0156] (first compound max 1 µM, 7x7, partner max 1 µM)	0.258	0.332	0.866	0.107	0.154	0.129	0.0987	0.198	0.828	0.117	0.236	0.0348	0.478	0.474	0.274	1	0.38	0.128	0.492	0.113
CC1(C)CCC(CN2CCN(c3ccc(C(=O)NS(=O)(=O)c4ccc(NCC5CCOCC5)c([N+](=O)[O-])c4)c(Oc4cnc5[nH]ccc5c4)c3)CC2)=C(c2ccc(Cl)cc2)C1 [Venetoclax] + C[C@@H]1COCCN1C2=NC(=NC(=C2)C3(CC3)[S@](=N)(=O)C)C4=C5C=CNC5=NC=C4 [AZD6738] (first compound max 1 µM, 7x7, partner max 10 µM)	0.939	0.902	0.983	0.85	0.424	0.317	0.789	0.862	0.779	0.516	0.686	0.834	0.979	0.332	0.352	0.981	0.508	0.351	0.46	0.665
Cn1cnc2c(F)c(Nc3ccc(Br)cc3Cl)c(C(=O)NOCCO)cc21 [Selumetinib] + C=CCn1c(=O)c2cnc(Nc3ccc(N4CCN(C)CC4)cc3)nc2n1-c1cccc(C(C)(C)O)n1 [AZD1775] (first compound max 10 µM, partner max 1 µM)	0.887	0.519	0.854	0.87	0.327	0.396	0.57	0.836	0.808	0.264	0.566	0.678	0.936	0.535	0.0977	0.858	0.636	0.361	0.233	0.567
CCc1c2c(nc3ccc(O)cc13)-c1cc3c(c(=O)n1C2)COC(=O)[C@]3(O)CC [SN-38] + O=C(c1cc(Cc2n[nH]c(=O)c3ccccc23)ccc1F)N1CCN(C(=O)C2CC2)CC1 [Olaparib] (first compound max 0.3 µM, 7x7, partner max 10 µM)	0.89	0.708	1	–	–	0.646	0.464	0.962	0.94	0.327	0.646	1	1	0.963	0.103	–	–	–	0.493	–
Cc1c2c(nn1C)CSCc1cc(n(C)n1)CSc1cc(c3ccccc3c1)OCCCc1c(C(=O)O)n(C)c3c-2c(Cl)ccc13 [AZD5991] + CC1(C)CCC(CN2CCN(c3ccc(C(=O)NS(=O)(=O)c4ccc(NCC5CCOCC5)c([N+](=O)[O-])c4)c(Oc4cnc5[nH]ccc5c4)c3)CC2)=C(c2ccc(Cl)cc2)C1 [Venetoclax] (first compound max 1 µM, 7x7, partner max 1 µM)	0.915	0.423	0.975	0.138	0.306	0.146	0.203	–	0.158	0.168	0.171	0.184	0.39	0.353	0.858	0.996	0.203	0.177	0.161	0.162
